Measured values published in US9902728B2, “Pyrrolo and pyrazolopyrimidines as ubiquitin-specific protease 7 inhibitors” (Forma Therapeutics, Inc., priority 2014, dated 2018).

The molecules below were run against T1, USP7 (Homo sapiens, UniProt Q93009) (assay: USP7 Assay A (Ubitquin-Rhodamine 110 Assay)). Conditions: USP7 assay A and B (table does not say which assay per compound); read-out: USP7_IC50.
T1 construct: USP7, construct USP7 (208-1102) 6*His, Viva Biotech; 6xHis (C); purchased Viva Biotech
Assay type: biochemical
Experimental: Each assay was performed in a final volume of 15 μL in assay buffer containing 20 mM Tris-HCl (pH 8.0, (1M Tris-HCl, pH 8.0 solution; Corning 46-031-CM)), 1 mM GSH (L-Glutathione reduced; Sigma #G4251), 0.03% BGG ([…], Sigma, #G7516-25G), and 0.01% Triton X-100 (Sigma, #T9284-10L). […] 5 μL of 2× enzyme was added to assay plates (pre-stamped with compound) preincubated with USP7 for 30 minutes and then 5 μL of 2×Ub-Rh110 was added to assay plates. […] Fluorescence was read on the Envision (Excitation at 485 nm and Emission at 535 nm; Perkin Elmer) or on the PheraSTAR (Excitation at 485 nm and Emission at 535 nm; BMG Labtech).
Data from USP7 Assays A and B were reported as percent inhibition (inh) compared with control wells based on the following equation: % inh=1−((FLU−AveLow)/(AveHigh−AveLow)) where FLU=measured Fluorescence (See Tables 6-10). AveLow=average Fluorescence of no enzyme control (n=16). AveHigh=average Fluorescence of DMSO control (n=16). […] Data is fitted using the Levenburg Marquardt algorithm.

T1 sequence (Q93009 208-1102): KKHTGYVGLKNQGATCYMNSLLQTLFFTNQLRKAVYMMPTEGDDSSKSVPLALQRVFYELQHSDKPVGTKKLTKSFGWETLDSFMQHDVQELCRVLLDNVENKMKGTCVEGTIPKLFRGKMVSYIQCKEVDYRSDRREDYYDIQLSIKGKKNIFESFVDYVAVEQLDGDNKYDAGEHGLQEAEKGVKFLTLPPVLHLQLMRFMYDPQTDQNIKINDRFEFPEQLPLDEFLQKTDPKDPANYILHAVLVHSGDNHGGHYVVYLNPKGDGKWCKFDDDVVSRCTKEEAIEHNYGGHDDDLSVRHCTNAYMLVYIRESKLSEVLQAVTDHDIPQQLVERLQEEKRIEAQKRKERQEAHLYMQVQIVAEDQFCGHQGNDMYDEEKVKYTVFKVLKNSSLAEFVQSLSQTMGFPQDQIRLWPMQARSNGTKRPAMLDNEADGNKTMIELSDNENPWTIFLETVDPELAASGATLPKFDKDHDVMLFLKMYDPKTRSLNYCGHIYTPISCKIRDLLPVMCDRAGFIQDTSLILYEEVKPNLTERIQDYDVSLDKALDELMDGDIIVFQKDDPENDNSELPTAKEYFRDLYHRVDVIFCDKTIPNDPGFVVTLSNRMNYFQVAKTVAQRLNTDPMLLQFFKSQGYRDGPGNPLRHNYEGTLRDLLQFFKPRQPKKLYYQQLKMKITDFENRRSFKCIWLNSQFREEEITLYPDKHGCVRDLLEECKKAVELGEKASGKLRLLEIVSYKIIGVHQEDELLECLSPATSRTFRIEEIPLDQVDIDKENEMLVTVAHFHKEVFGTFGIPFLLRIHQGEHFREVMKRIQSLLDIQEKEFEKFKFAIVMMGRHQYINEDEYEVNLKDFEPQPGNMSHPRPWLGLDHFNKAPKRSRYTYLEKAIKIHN

Compared with `CC(C)n1ncc2c(=O)n(CC3(O)CCN(C(=O)c4ccc(Oc5ccccc5)cc4)CC3)cnc21` [Compound I-62], `O=C(c1ccc(Oc2ccccc2)cc1)N1CCC(O)(Cn2cnc3c(cnn3C3CC3)c2=O)CC1` [Compound I-152] is lower in IC50: over 10 µM for the first, 1 to 10 µM for the second.

`C[C@H](CC(=O)N1CCC(O)(Cn2cnc3c(cnn3-c3ccc(F)cc3)c2=O)CC1)c1ccccc1` [Compound I-65] and `Cc1ccc(-n2ncc3c(=O)n(CC4(O)CCN(C(=O)C[C@@H](C)c5ccccc5)CC4)cnc32)cc1` [Compound I-68] cannot be ordered by IC50: under 0.2 µM for the first, under 0.2 µM for the second.

`O=C(c1ccc(Oc2ccccc2)cc1)N1CCC(O)(Cn2cnc3c(cnn3-c3ccc(F)cc3)c2=O)CC1` [Compound I-66] and `Cc1ccc(-n2ncc3c(=O)n(CC4(O)CCN(C(=O)c5ccc(Oc6ccccc6)cc5)CC4)cnc32)cc1` [Compound I-69] fall in the same range of IC50: 0.2 to 1 µM for the first, 0.2 to 1 µM for the second.

`C[C@H](CC(=O)N1CCC(O)(Cn2cnc3c(cnn3-c3cccc(C(F)(F)F)c3)c2=O)CC1)c1ccccc1` [Compound I-67] and `C[C@H](CC(=O)N1CCC(O)(Cn2cnc3c(cnn3-c3ccccc3)c2=O)CC1)c1ccccc1` [Compound I-72] cannot be ordered by IC50: under 0.2 µM for the first, under 0.2 µM for the second.

Compared with `C[C@H](CC(=O)N1CCC(O)(Cn2cnc3c(cnn3-c3ccccn3)c2=O)CC1)c1ccccc1` [Compound I-70], `C[C@H](CC(=O)N1CCC(O)(Cn2cnc3c(cnn3-c3ccccc3)c2=O)CC1)n1cccn1` [Compound I-175] is lower in IC50: 0.2 to 1 µM for the first, under 0.2 µM for the second.

First: O=C(c1ccc(Oc2ccccc2)cc1)N1CCC(O)(Cn2cnc3c(cnn3-c3ccccc3)c2=O)CC1 [Compound I-73]
Second: O=C(c1ccccc1)N1CCC(O)(Cn2cnc3c(cnn3-c3ccccc3)c2=O)CC1 [Compound I-153]
The IC50 of the first is lower: 0.2 to 1 µM for the first, 1 to 10 µM for the second. The first is the more potent here.

`CC(CC(=O)N1CCC(O)(Cn2cnc3c(cnn3C)c2=O)CC1)c1ccc(F)cc1` (stereo not drawn) [Compound I-78] and `CC(CC(=O)N1CCC(O)(Cn2cnc3c(cnn3C)c2=O)CC1)n1cccc1` (stereo not drawn) [Compound I-105] fall in the same range of IC50: 0.2 to 1 µM for the first, 0.2 to 1 µM for the second.

First: Cn1ncc2c(=O)n(CC3(O)CCN(C(=O)c4ccc(-c5ccccc5CC#N)cc4)CC3)cnc21 [Compound I-83]
Second: CN(Cc1ccccc1)c1ccc(C(=O)N2CCC(O)(Cn3cnc4c(cnn4C)c3=O)CC2)cc1 [Compound I-119]
The IC50 of the first is higher: 1 to 10 µM for the first, 0.2 to 1 µM for the second.

`Cn1ncc2c(=O)n(CC3(O)CCN(C(=O)c4ccc(S(=O)(=O)Nc5ccccc5)cc4)CC3)cnc21` [Compound I-106] and `Cn1ncc2c(=O)n(CC3(O)CCN(C(=O)c4ccc(NS(=O)(=O)c5ccccc5)cc4)CC3)cnc21` [Compound I-111] fall in the same range of IC50: 1 to 10 µM for the first, 1 to 10 µM for the second.

First: CN(C(=O)c1ccc(C(=O)N2CCC(O)(Cn3cnc4c(cnn4C)c3=O)CC2)cc1)c1ccccc1 [Compound I-108]
Second: NC(=O)c1ccc(C(=O)N2CCC(O)(Cn3cnc4c(cnn4-c4ccccc4)c3=O)CC2)cc1 [Compound I-179]
The IC50 of the first is higher: 1 to 10 µM for the first, 0.2 to 1 µM for the second. The second is the more potent here.

`Cn1ncc2c(=O)n(CC3(O)CCN(C(=O)c4ccc5c(c4)CCN(c4ccccc4)C5)CC3)cnc21` [Compound I-115] and `Cc1ccc(C(=O)N2CCC(O)(Cn3cnc4c(cnn4-c4ccccc4)c3=O)CC2)cc1C` [Compound I-200] fall in the same range of IC50: 1 to 10 µM for the first, 1 to 10 µM for the second.

Compared with `O=C(C[C@H](c1ccccc1)C(F)(F)F)N1CCC(O)(Cn2cnc3c(cnn3-c3ccccc3)c2=O)CC1` [Compound I-141], `O=C(C[C@@H](c1ccccc1)C(F)(F)F)N1CCC(O)(Cn2cnc3c(cnn3-c3ccccc3)c2=O)CC1` [Compound I-142] is lower in IC50: 1 to 10 µM for the first, under 0.2 µM for the second.

`Cn1ncc2c(=O)n(CC3(O)CCN(C(=O)C[C@H](c4ccccc4)C(F)(F)F)CC3)cnc21` [Compound I-143] and `Cn1ncc2c(=O)n(CC3(O)CCN(C(=O)CC(c4ccccc4)C(F)F)CC3)cnc21` (stereo not drawn) [Compound I-147] fall in the same range of IC50: 1 to 10 µM for the first, 1 to 10 µM for the second.

First: Cc1ccc(-n2ncc3c(=O)n(CC4(O)CCN(C(=O)C[C@H](c5ccccc5)C(F)(F)F)CC4)cnc32)cc1 [Compound I-144]
Second: Cc1ccc(-n2ncc3c(=O)n(CC4(O)CCN(C(=O)C[C@@H](c5ccccc5)C(F)(F)F)CC4)cnc32)cc1 [Compound I-145]
The IC50 of the first is higher: 1 to 10 µM for the first, under 0.2 µM for the second. The second is the more potent here.

First: O=C(c1cccn1Cc1ccccc1)N1CCC(O)(Cn2cnc3c(cnn3-c3ccccc3)c2=O)CC1 [Compound I-150]
Second: O=C(c1ccc(F)cc1)N1CCC(O)(Cn2cnc3c(cnn3-c3ccccc3)c2=O)CC1 [Compound I-190]
The IC50 of the first is lower: under 0.2 µM for the first, 0.2 to 1 µM for the second. The first is the more potent here.

`CC(=O)N1CCC(O)(Cn2cnc3c(cnn3-c3ccccc3)c2=O)CC1` [Compound I-154] and `O=C(C1CC1)N1CCC(O)(Cn2cnc3c(cnn3-c3ccccc3)c2=O)CC1` [Compound I-158] fall in the same range of IC50: 1 to 10 µM for the first, 1 to 10 µM for the second.

`Cn1cnc(C(=O)N2CCC(O)(Cn3cnc4c(cnn4-c4ccccc4)c3=O)CC2)c1` [Compound I-155] and `Cc1cc(C(=O)N2CCC(O)(Cn3cnc4c(cnn4-c4ccccc4)c3=O)CC2)nn1C` [Compound I-229] fall in the same range of IC50: 1 to 10 µM for the first, 1 to 10 µM for the second.

`O=C(c1ccc(C2CC2)cc1)N1CCC(O)(Cn2cnc3c(cnn3-c3ccccc3)c2=O)CC1` [Compound I-156] and `COc1ccc(C(=O)N2CCC(O)(Cn3cnc4c(cnn4-c4ccccc4)c3=O)CC2)cc1` [Compound I-157] fall in the same range of IC50: 0.2 to 1 µM for the first, 0.2 to 1 µM for the second.

First: O=C(c1ccc(=O)[nH]c1)N1CCC(O)(Cn2cnc3c(cnn3-c3ccccc3)c2=O)CC1 [Compound I-160]
Second: O=C(c1ccc(F)c(Cl)c1)N1CCC(O)(Cn2cnc3c(cnn3-c3ccccc3)c2=O)CC1 [Compound I-210]
The IC50 of the first is lower: 0.2 to 1 µM for the first, 1 to 10 µM for the second.

`CS(=O)(=O)Nc1ccc(C(=O)N2CCC(O)(Cn3cnc4c(cnn4-c4ccccc4)c3=O)CC2)cc1` [Compound I-164] and `C=CS(=O)(=O)Nc1ccc(C(=O)N2CCC(O)(Cn3cnc4c(cnn4-c4ccccc4)c3=O)CC2)cc1` [Compound I-173] fall in the same range of IC50: 0.2 to 1 µM for the first, 0.2 to 1 µM for the second.

Compared with `C=CS(=O)(=O)NCC(Cc1ccccc1)C(=O)N1CCC(O)(Cn2cnc3c(cnn3C)c2=O)CC1` (stereo not drawn) [Compound I-170], `CNS(=O)(=O)c1ccc(C(=O)N2CCC(O)(Cn3cnc4c(cnn4-c4ccccc4)c3=O)CC2)cc1` [Compound I-182] is lower in IC50: over 10 µM for the first, 1 to 10 µM for the second. The second is the more potent here.

`NC(=O)c1cccc(C(=O)N2CCC(O)(Cn3cnc4c(cnn4-c4ccccc4)c3=O)CC2)c1` [Compound I-172] and `CC(=O)Nc1cccc(C(=O)N2CCC(O)(Cn3cnc4c(cnn4-c4ccccc4)c3=O)CC2)c1` [Compound I-181] fall in the same range of IC50: 1 to 10 µM for the first, 1 to 10 µM for the second.

First: C[C@@H](CC(=O)N1CCC(O)(Cn2cnc3c(cnn3-c3ccccc3)c2=O)CC1)n1cccn1 [Compound I-176]
Second: C[C@H](CC(=O)N1CCC(O)(Cn2cnc3c(cnn3-c3ccccc3)c2=O)CC1)n1cccc1 [Compound I-177]
The IC50 of the first is higher: 1 to 10 µM for the first, under 0.2 µM for the second. The second is the more potent here.

`C[C@@H](CC(=O)N1CCC(O)(Cn2cnc3c(cnn3-c3ccccc3)c2=O)CC1)n1cccc1` [Compound I-178] and `O=C(c1ccncc1)N1CCC(O)(Cn2cnc3c(cnn3-c3ccccc3)c2=O)CC1` [Compound I-191] fall in the same range of IC50: 1 to 10 µM for the first, 1 to 10 µM for the second.

`CNC(=O)c1ccc(C(=O)N2CCC(O)(Cn3cnc4c(cnn4-c4ccccc4)c3=O)CC2)cc1` [Compound I-184] and `Cc1ccc(C(=O)N2CCC(O)(Cn3cnc4c(cnn4-c4ccccc4)c3=O)CC2)cc1Cl` [Compound I-211] fall in the same range of IC50: 0.2 to 1 µM for the first, 0.2 to 1 µM for the second.

`O=C(C1CCCCC1)N1CCC(O)(Cn2cnc3c(cnn3-c3ccccc3)c2=O)CC1` [Compound I-189] and `O=C(C1CCCC1)N1CCC(O)(Cn2cnc3c(cnn3-c3ccccc3)c2=O)CC1` [Compound I-195] fall in the same range of IC50: 0.2 to 1 µM for the first, 0.2 to 1 µM for the second.

First: O=C(C1CCC1)N1CCC(O)(Cn2cnc3c(cnn3-c3ccccc3)c2=O)CC1 [Compound I-194]
Second: Cc1cnc(C(=O)N2CCC(O)(Cn3cnc4c(cnn4-c4ccccc4)c3=O)CC2)cn1 [Compound I-227]
The IC50 of the first is lower: 1 to 10 µM for the first, over 10 µM for the second.

First: Cc1cc(C)cc(C(=O)N2CCC(O)(Cn3cnc4c(cnn4-c4ccccc4)c3=O)CC2)c1 [Compound I-197]
Second: COc1cc(OC)cc(C(=O)N2CCC(O)(Cn3cnc4c(cnn4-c4ccccc4)c3=O)CC2)c1 [Compound I-203]
The IC50 of the first is lower: 1 to 10 µM for the first, over 10 µM for the second. The first is the more potent here.

`Cc1cccc(C(=O)N2CCC(O)(Cn3cnc4c(cnn4-c4ccccc4)c3=O)CC2)c1F` [Compound I-206] and `O=C(c1ccc(F)cc1F)N1CCC(O)(Cn2cnc3c(cnn3-c3ccccc3)c2=O)CC1` [Compound I-209] fall in the same range of IC50: 1 to 10 µM for the first, 1 to 10 µM for the second.

First: Cc1cc(C(=O)N2CCC(O)(Cn3cnc4c(cnn4-c4ccccc4)c3=O)CC2)ccc1Cl [Compound I-212]
Second: O=C(c1ccc(Cl)c(Cl)c1)N1CCC(O)(Cn2cnc3c(cnn3-c3ccccc3)c2=O)CC1 [Compound I-213]
The IC50 of the first is lower: 0.2 to 1 µM for the first, 1 to 10 µM for the second. The first is the more potent here.

First: COc1ccc(C(=O)N2CCC(O)(Cn3cnc4c(cnn4-c4ccccc4)c3=O)CC2)cc1Cl [Compound I-214]
Second: COc1cc(C(=O)N2CCC(O)(Cn3cnc4c(cnn4-c4ccccc4)c3=O)CC2)ccc1Cl [Compound I-226]
The IC50 of the first is lower: 0.2 to 1 µM for the first, 1 to 10 µM for the second. The first is the more potent here.

`COc1ccc(Cl)cc1C(=O)N1CCC(O)(Cn2cnc3c(cnn3-c3ccccc3)c2=O)CC1` [Compound I-218] and `COc1ccc(OC)c(C(=O)N2CCC(O)(Cn3cnc4c(cnn4-c4ccccc4)c3=O)CC2)c1` [Compound I-221] fall in the same range of IC50: 1 to 10 µM for the first, 1 to 10 µM for the second.

`O=C(c1cc(Cl)ccc1Cl)N1CCC(O)(Cn2cnc3c(cnn3-c3ccccc3)c2=O)CC1` [Compound I-223] and `O=C(c1ccc(Cl)cc1Cl)N1CCC(O)(Cn2cnc3c(cnn3-c3ccccc3)c2=O)CC1` [Compound I-224] fall in the same range of IC50: 0.2 to 1 µM for the first, 0.2 to 1 µM for the second.
